Measured values from PubChem BioAssay (NCI).
Several values for one entry are separate records, joined by “and”; a condition that tells them apart may be missing. Identical values can stand only once.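 All cell lines were grown in 96-well plates and treated with compound for 48 hours. GI50 marks 50% less growth. TGI: concentration producing complete growth inhibition.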

How the values were obtained:
Assay in all cases: growth of human tumour cells (NCI), 48 h
M19-MEL melanoma = tested on: M19-MEL melanoma
HOP-18 NSCLC = tested on: HOP-18 NSCLC
BT-549 breast = tested on: BT-549 breast
HOP-92 NSCLC = tested on: HOP-92 NSCLC
MDA-N = tested on: MDA-N
HCT-15 colon = tested on: HCT-15 colon
U251 CNS = tested on: U251 CNS
SN12C renal = tested on: SN12C renal
NCI-H460 lung = tested on: NCI-H460 lung
DMS 273 small cell lung = tested on: DMS 273 small cell lung
SNB-78 CNS = tested on: SNB-78 CNS

SMILES	GI50 (M19-MEL melanoma) [µM]	TGI (M19-MEL melanoma)	GI50 (HOP-18 NSCLC) [µM]	TGI (HOP-18 NSCLC)	TGI (BT-549 breast) [µM]	GI50 (HOP-92 NSCLC) [µM]	TGI (HOP-92 NSCLC) [µM]	GI50 (MDA-N) [µM]	TGI (MDA-N)	GI50 (HCT-15 colon) [µM]	TGI (HCT-15 colon)	GI50 (U251 CNS) [µM]	TGI (U251 CNS)	TGI (SN12C renal)	TGI (NCI-H460 lung)	TGI (DMS 273 small cell lung) [µM]	TGI (SNB-78 CNS) [µM]	GI50 (SN12C renal) [µM]	GI50 (NCI-H460 lung) [µM]
NCCNc1ccc(NCCN)c2c1C(=O)c1c(O)ccc(O)c1C2=O	0.104	1.04 µM and 1.17 µM	0.0263	3.82 µM and 0.77 µM	2.18	0.229	0.0789	0.26	2.33 µM and 1.43 µM	0.0303	0.391 µM and 1.26 µM	0.0238	0.845 µM and 0.137 µM	0.0799 µM and 0.0776 µM	0.159 µM and 0.178 µM	–	–	–	–
CC(=O)c1ccc(Nc2nc3ccccc3c3occc23)cc1	–	–	–	–	64.4	–	49.8	–	47.7 µM	–	33.8 µM	–	> 100 µM	> 100 µM	23 µM	–	–	–	–
CC(=O)C(C(=O)C(=O)Nc1cc(Cl)c(Cl)cc1Cl)c1csc(N)n1 (stereo unspecified)	–	> 100 µM	–	–	–	–	> 100	–	–	–	> 100 µM	–	> 100 µM	> 100 µM	> 100 µM	> 100	> 100	–	–
CCCc1cn2c(/C=N/N=C(N)N)c(-c3ccc([N+](=O)[O-])cc3)nc2s1	–	–	–	–	–	–	74	–	–	–	2.3 µM	–	1.39 µM	3.06 µM	–	–	–	–	–
O=[N+]([O-])c1ccc(C2NC(=S)NC3c4cc([N+](=O)[O-])ccc4CCCC23)cc1 (stereo unspecified)	–	–	–	–	> 100	–	45.5	–	–	–	> 100 µM	–	> 100 µM	> 100 µM	> 100 µM	–	–	–	–
COC1=C(OC)C(=O)C(C/C=C/c2c(Cl)nc3sccn23)=C(C)C1=O	–	–	–	–	28.8	–	–	–	19.8 µM	–	> 100 µM	–	25.6 µM	31.7 µM	38.6 µM	–	–	–	–
CCCCCC1CC(C(C)=O)CN1c1ccc(F)cc1 (stereo unspecified)	–	> 100 µM	–	82.5 µM	–	–	83.6	–	–	–	> 100 µM	–	> 100 µM	> 100 µM	> 100 µM	> 100	> 100	–	–
CCn1c(=O)c2c3ccc(O)cc3[nH]c2c2ccc(O)cc21	–	–	–	–	> 100	–	> 100	–	> 100 µM	–	> 100 µM	–	> 100 µM	> 100 µM	–	–	–	–	–
O=C(N/N=C/c1cc(Cl)cc(Cl)c1[O-])c1ccccc1O.O=C(N/N=C/c1cc(Cl)cc(Cl)c1[O-])c1ccccc1O.[Cu+2]	–	–	–	–	–	0.224	0.671	–	–	–	1.61 µM	–	1.34 µM	–	–	–	–	–	–
Cn1cc(-c2csc(-c3cn(CCCN4CCCCC4)c4ccc(Br)cc34)n2)c2cccnc21	–	–	–	–	–	1.79	3.63	–	–	–	–	–	–	3.31 µM	3.4 µM	–	–	1.74	1.87
C[N+]1(C)C/C(=C\C=C\c2ccccc2)C(=O)/C(=C/C=C/c2ccccc2)C1	–	31.7 µM	–	> 61.1 µM	8.39	–	70.3	–	11.1 µM	–	> 100 µM	–	19.2 µM	62.5 µM	59.1 µM	–	> 100	–	–
O=[N+]([O-])c1cc(C(F)(F)F)cc2c1SC1=Nc3ccccc3CN12	–	> 100 µM	–	> 100 µM	–	–	> 100	–	–	–	> 100 µM	–	> 100 µM	> 100 µM	> 100 µM	> 100	> 100	–	–
Nc1n[nH]c(N)n1	–	> 10000 µM	–	> 10000 µM	> 10000	–	9580	–	> 10000 µM	–	> 10000 µM	–	> 10000 µM	> 8900 µM	8220 µM	6450	> 8560	–	–
O=C(N/N=C/c1cc(Cl)cc(Cl)c1[O-])c1ccccc1O.O=C(N/N=C/c1cc(Cl)cc(Cl)c1[O-])c1ccccc1O.[Fe+2]	–	–	–	–	–	3.4	8.33	–	–	–	19.3 µM	–	22.6 µM	–	38.5 µM	–	–	–	–
NC1C2C=CC(C2)C1C(=O)O (stereo unspecified)	–	–	–	–	> 100	–	> 100	–	> 100 µM	–	> 100 µM	–	> 100 µM	> 100 µM	–	–	–	–	–
CCC/C=C/C=C\C(=O)O[C@@H]1[C@@H](C)[C@]2(O)[C@@H]3C=C(C)C(=O)[C@H]3CC(COC(C)=O)=C[C@H]2[C@@H]2C(C)(C)[C@]12OC(C)=O	–	76.5 µM	–	109 µM	–	–	156	–	–	–	77.1 µM	–	69.1 µM	100 µM	63.7 µM	82.4	152	–	–
O=C(N/N=C/c1cc(Cl)cc(Cl)c1[OH2+])c1ccncc1.O=S(=O)([O-])[O-].[Fe+2]	–	–	–	–	–	3.71	9.66	–	–	–	35.2 µM	–	–	79.3 µM	22.4 µM	–	–	–	–
NCCCC(N)(C(=O)O)C(F)F (stereo unspecified)	–	> 5000 µM	–	> 50 µM	–	–	> 5000	–	–	–	> 5000 µM	–	> 5000 µM	> 5000 µM	> 5000 µM	> 5000	> 5000	–	–
Oc1ccccc1CNCc1ccccc1O	–	–	–	–	> 100	–	> 100	–	> 100 µM	–	> 100 µM	–	> 100 µM	> 100 µM	> 100 µM	–	–	–	–
COc1cc2c(cc1OC)-c1cc3cc(OC)c(OC)cc3c(C)[n+]1CC2 (tested in a mixture with another compound)	–	–	–	–	> 100	–	> 100	–	> 100 µM	–	> 100 µM	–	> 100 µM	> 100 µM	71.2 µM	–	–	–	–
CCN(CC)CCCNC(=O)c1ccccc1Nc1c(Cl)cccc1Cl	–	11 µM	–	–	–	–	–	–	–	–	25.2 µM	–	–	27.2 µM	–	31.1	31.7	–	–
O=c1[nH]c(Br)nc2n[nH]nc12	–	–	–	–	> 100	–	> 100	–	> 100 µM	–	> 100 µM	–	> 100 µM	> 100 µM	> 100 µM	–	–	–	–
